Patent US5703118A, “Use of benzopyran derivatives for the treatment of pathologies associated with the NA^+ -independent CI-/HCO3 -exchanger” (Adir et Compagnie, priority 1995, dated 1997)
Where two headings read alike, the source gives them in different places.

Columns and labels:
[1] = system: Na^+ -independent Cl^- /HCO3^- exchanger; assay: Activity of the Na^+ -independent Cl^- /HCO3^- exchanger in ventricular cardiomyocytes isolated from rat heart (acetate method, carboxy-SNARF-1 intracellular pH); format: cell-based
Protocol: Example A: MEASUREMENT OF THE ACTIVITY OF THE Na^+ -INDEPENDENT Cl^- /HCO3^- EXCHANGER IN VENTRICULAR CARDIOMYOCYTES ISOLATED FROM RAT HEART
The study is performed on ventricular cardiomyocytes isolated from rat heart by enzymatic dissociation. The intracellular pH of a single cell is measured by the fluorescent label carboxy-SNARF-1 whose fluorescence depends on its state of protonation (Buckler K. J. et al. Pflugers Archiv, 1990, 417: 234-239). The cells are "charged" beforehand with SNARF-1-AM (esterified and permeating form of the label) and the intracellular fluorescence of SNARF is monitored using an inverted microscope equipped with epifluorescence. The measurements are converted into pH using a calibration file.
The activity of the Na^+ -independent Cl^- /HCO3^- exchanger is studied after activation by induction of an alkaline charge of the cells by the acetate method (Roos A et al. Physiol. Rev., 1981, 61: 296-434). […]
The compounds according to the invention are used at concentrations of 10^-11 to 10^-5 M and their IC50 (50% inhibitory concentration) is calculated for each ion transporter. In parallel, the effects of the molecules on the intracellular intrinsic buffer power and the intracellular resting pH are determined.

[2] = system: isolated rat hearts; assay: Cardiovascular study: arrhythmias in isolated rat hearts (Langendorff infusion), ischaemia-reinfusion; settings: for inhibition at 0.1 µM: Rattus norvegicus, n=6, preliminary
Protocol: Example F: CARDIOVASCULAR STUDY
The compounds are tested at a concentration of 0.1 μM in a solution of DMSO in Krebs buffer (0.01% v/v) on arrhythmias. 6 isolated rat hearts were used for the test compound and 6 for the control. An infusion by the Langendorff method is performed (Rees S. A. and Curtis M.J.J. Card. Pharmacol. 1995, 26: 280-288).

Compound: Cc1cc(C)c(NC(=O)C2(C)CCc3c(C)c(O)c(C)c(C)c3O2)cc1C (centres unmarked) [Example 14, N-(2,4,5-trimethylphenyl)-(6-hydroxy-3,4-dihydro-2,5,7,8-tetramethyl-2H[1]-benzopyran-2-yl)carboxamide]
- selectivity of inhibition of the Na^+ -independent Cl^- /HCO3^- exchanger ([1]; Na^+ /H^+ exchange and Na^+ /HCO3^- cotransport also studied (ammonium method)): selective inhibitor
- IC50 ([1]; activation by alkaline charge (acetate method), 10^-11 to 10^-5 M, read-out: IC50 (50% inhibitory concentration), Na^+ -independent Cl^- /HCO3^- exchanger): ~0.1 nM
- activity on the cardiovascular system ([2]; 0.1 μM, isolated rat heart): possesses cardioprotective activity
- inhibition at 0.1 µM ([2]; in comparison with control hearts, read-out: reduction of the incidence of ventricular fibrillation observed during the ischaemia): 50%
- inhibition at 0.1 µM ([2]; read-out: reduction of the incidence of ventricular fibrillation observed during reinfusion): 50%
